Publication PMC4747340, “A new class of small molecule estrogen receptor-alpha antagonists that overcome anti-estrogen resistance” (Oncotarget, 2015)

Legend:
Assay type in all cases: cell-based
[1] = target: T1, estrogen receptor-alpha (ER) (Homo sapiens, UniProt P03372); experiment: constitutive ER activity, ERE-TK-Luc reporter, in anti-estrogen resistant LCC9 cells; set-up: LCC9 cells in 24-well dishes were transfected overnight with the ERE-TK-Luc reporter plasmid; endogenous in cells; host or cells: LCC9; details: compound plus Tam compared with compound alone, 24 hr
T1 sequence (P03372 1-595): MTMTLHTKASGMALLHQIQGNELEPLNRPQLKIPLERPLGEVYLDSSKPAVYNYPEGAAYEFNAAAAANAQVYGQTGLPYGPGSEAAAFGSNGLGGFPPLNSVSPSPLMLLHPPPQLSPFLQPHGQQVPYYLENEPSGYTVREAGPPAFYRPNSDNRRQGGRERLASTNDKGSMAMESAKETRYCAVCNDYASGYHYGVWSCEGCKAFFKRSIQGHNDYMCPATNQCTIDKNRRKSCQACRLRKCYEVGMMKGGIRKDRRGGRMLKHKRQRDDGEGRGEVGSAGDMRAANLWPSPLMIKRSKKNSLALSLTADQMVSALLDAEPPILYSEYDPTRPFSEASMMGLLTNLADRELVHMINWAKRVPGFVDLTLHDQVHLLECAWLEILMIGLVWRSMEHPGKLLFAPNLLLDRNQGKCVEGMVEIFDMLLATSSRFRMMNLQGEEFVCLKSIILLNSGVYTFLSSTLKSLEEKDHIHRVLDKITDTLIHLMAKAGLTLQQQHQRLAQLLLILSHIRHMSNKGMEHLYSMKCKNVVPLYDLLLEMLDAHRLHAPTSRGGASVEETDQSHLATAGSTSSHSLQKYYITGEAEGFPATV
Experimental: For MCF-7, luciferase activity is expressed as a fold-change relative to the no E2 control. For LCC9, luciferase activity is expressed relative to the control without the reporter present. Values plotted are means ± SEMs of four replicate wells. The data shown in each panel are representative of three independent experiments.
The cells were then treated with the indicated concentrations of the six bioactive compounds or vehicle only (DMSO) for 24-hr and assayed for luciferase activity. Luciferase activity is expressed as a percentage of the DMSO control. Values are means ± SEMs of four replicate wells. The data shown in each panel are representative of three independent experiments.
The cells were then harvested for luciferase assays. Luciferase activity was expressed as a fold-change relative to the no reporter control. Values plotted are means ± SEMs of four replicate wells. The data shown are representative of three independent experiments.
(§1) Subconfluent cells in 24-well dishes were transfected overnight with 0.25 μg of each indicated vector plus the ERE-TK-Luc reporter in serum-free DMEM containing Lipofectamine2000 (Life Technologies, Washington, DC). Total transfected DNA was kept constant by addition of control vector. The cells were washed, incubated in phenol red-free DMEM containing 5% charcoal-stripped serum (obtained from the Tissue Culture Shared Resource) (0.2 ml/well) ± E2 (10 nM) ± the indicated compound for 24-hr, and harvested for luciferase assays. For each assay condition was tested in quadrupicate. To monitor the transfection efficiency, cultures were co-transfected with plasmid pRSV-β-gal (Promega, Madison, WI) to visualize transfected cells by X-gal staining.

ER Lys449Ala = target: T2, ER Lys449Ala (Homo sapiens, UniProt P03372, K449A); experiment: ER mutation analysis, ERE-TK-Luc reporter in transfected MDA-MB-231 cells; details: MDA-MB-231 transfected with mutant ER, E2 10 nM, 24 hr
T2 construct: expressed in transfected cells; host or cells: MDA-MB-231
T2 sequence (P03372 whole entry K449A): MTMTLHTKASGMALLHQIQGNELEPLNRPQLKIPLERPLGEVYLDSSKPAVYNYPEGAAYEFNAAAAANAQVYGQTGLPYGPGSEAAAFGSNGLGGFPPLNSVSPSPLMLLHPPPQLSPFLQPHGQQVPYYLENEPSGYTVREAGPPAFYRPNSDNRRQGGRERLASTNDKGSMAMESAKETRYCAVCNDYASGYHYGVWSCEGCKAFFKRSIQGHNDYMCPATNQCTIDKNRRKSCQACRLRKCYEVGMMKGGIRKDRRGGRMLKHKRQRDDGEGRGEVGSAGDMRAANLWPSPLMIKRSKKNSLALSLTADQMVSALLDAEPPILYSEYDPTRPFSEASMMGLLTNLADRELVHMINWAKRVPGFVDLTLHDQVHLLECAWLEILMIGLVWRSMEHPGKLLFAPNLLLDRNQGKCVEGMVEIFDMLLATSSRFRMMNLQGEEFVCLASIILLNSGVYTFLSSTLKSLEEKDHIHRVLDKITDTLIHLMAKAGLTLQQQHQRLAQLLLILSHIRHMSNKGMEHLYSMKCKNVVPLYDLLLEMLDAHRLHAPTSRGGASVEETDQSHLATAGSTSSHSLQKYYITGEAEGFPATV
Text: (§2) B., C. Panels B and C show a comparison of the ER interaction of one of our original series of compounds (A7) (B) and one new compounds (48693-K/1) (C). ER is represented by gray ribbon and its residues interacting with the compounds are drawn with wireframe and labeled. […] The hydrogen bond interaction with ARG 394 is shown in green line. […] The cells were harvested for luciferase assays. Luciferase values are expressed as a percent of the +E2 vehicle control and are means ± SEMs of four wells. The data shown in panels D to G are representative of three independent experiments.
as §1

ER Prol325Ala = target: T3, ER Prol325Ala (Homo sapiens, UniProt P03372, P325A); experiment: as above; details: MDA-MB-231 transfected with mutant ER, E2 10 nM, 24 hr; second row for residue 325
T3 construct: expressed in transfected cells; host or cells: MDA-MB-231
T3 sequence (P03372 whole entry P325A): as the sequence (P03372 whole entry K449A) above, with P325A, A449K counted along it
Text: as §2, §1

ER Leu327Ala = target: T4, ER Leu327Ala (Homo sapiens, UniProt P03372, L327A); experiment: as above; details: MDA-MB-231 transfected with mutant ER, E2 10 nM, 24 hr
T4 construct: expressed in transfected cells; host or cells: MDA-MB-231
T4 sequence (P03372 whole entry L327A): as the sequence (P03372 whole entry K449A) above, with L327A, A449K counted along it
Text: as §2, §1

ER Leu387Ala = target: T5, ER Leu387Ala (Homo sapiens, UniProt P03372, L387A); experiment: as above; details: MDA-MB-231 transfected with mutant ER, E2 10 nM, 24 hr
T5 construct: expressed in transfected cells; host or cells: MDA-MB-231
T5 sequence (P03372 whole entry L387A): as the sequence (P03372 whole entry K449A) above, with L387A, A449K counted along it
Text: as §2, §1

ER Ile386Ala+Leu387Ala = target: T6, ER Ile386Ala+Leu387Ala (Homo sapiens, UniProt P03372, I386A/L387A); experiment: as above; details: MDA-MB-231 transfected with mutant ER, E2 10 nM, 24 hr
T6 construct: expressed in transfected cells; host or cells: MDA-MB-231
T6 sequence (P03372 whole entry I386A/L387A): as the sequence (P03372 whole entry K449A) above, with I386A, L387A, A449K counted along it
Text: as §2, §1

ER Trp393Ala = target: T7, ER Trp393Ala (Homo sapiens, UniProt P03372, W393A); experiment: as above; details: MDA-MB-231 transfected with mutant ER, E2 10 nM, 24 hr
T7 construct: expressed in transfected cells; host or cells: MDA-MB-231
T7 sequence (P03372 whole entry W393A): as the sequence (P03372 whole entry K449A) above, with W393A, A449K counted along it
Text: as §2, §1

ER Glu353Ala = target: T8, ER Glu353Ala (Homo sapiens, UniProt P03372, E353A); experiment: as above; details: MDA-MB-231 transfected with mutant ER, E2 10 nM, 24 hr
T8 construct: expressed in transfected cells; host or cells: MDA-MB-231
T8 sequence (P03372 whole entry E353A): as the sequence (P03372 whole entry K449A) above, with E353A, A449K counted along it
Text: as §2, §1

ER Pro325Ala = target: T9, ER Pro325Ala (Homo sapiens, UniProt P03372, P325A); experiment: as above; details: MDA-MB-231 transfected with mutant ER, E2 10 nM, 24 hr
T9 construct: expressed in transfected cells; host or cells: MDA-MB-231
T9 sequence (P03372 whole entry P325A): as the sequence (P03372 whole entry K449A) above, with P325A, A449K counted along it
Text: as §2, §1

ER His356Ala = target: T10, ER His356Ala (Homo sapiens, UniProt P03372, H356A); experiment: as above; details: MDA-MB-231 transfected with mutant ER, E2 10 nM, 24 hr
T10 construct: expressed in transfected cells; host or cells: MDA-MB-231
T10 sequence (P03372 whole entry H356A): as the sequence (P03372 whole entry K449A) above, with H356A, A449K counted along it
Text: as §2, §1

ER Pro324Ala = target: T11, ER Pro324Ala (Homo sapiens, UniProt P03372, P324A); experiment: as above; details: MDA-MB-231 transfected with mutant ER, E2 10 nM, 24 hr
T11 construct: expressed in transfected cells; host or cells: MDA-MB-231
T11 sequence (P03372 whole entry P324A): as the sequence (P03372 whole entry K449A) above, with P324A, A449K counted along it
Text: as §2, §1

ER Ile386Ala = target: T12, ER Ile386Ala (Homo sapiens, UniProt P03372, I386A); experiment: as above; details: MDA-MB-231 transfected with mutant ER, E2 10 nM, 24 hr
T12 construct: expressed in transfected cells; host or cells: MDA-MB-231
T12 sequence (P03372 whole entry I386A): as the sequence (P03372 whole entry K449A) above, with I386A, A449K counted along it
Text: as §2, §1

ER Ile326Ala = target: T13, ER Ile326Ala (Homo sapiens, UniProt P03372, I326A); experiment: as above; details: MDA-MB-231 transfected with mutant ER, E2 10 nM, 24 hr
T13 construct: expressed in transfected cells; host or cells: MDA-MB-231
T13 sequence (P03372 whole entry I326A): as the sequence (P03372 whole entry K449A) above, with I326A, A449K counted along it
Text: as §2, §1

ER Glu323Ala = target: T14, ER Glu323Ala (Homo sapiens, UniProt P03372, E323A); experiment: as above; details: MDA-MB-231 transfected with mutant ER, E2 10 nM, 24 hr
T14 construct: expressed in transfected cells; host or cells: MDA-MB-231
T14 sequence (P03372 whole entry E323A): as the sequence (P03372 whole entry K449A) above, with E323A, A449K counted along it
Text: as §2, §1

ER Arg394Ala = target: T15, ER Arg394Ala (Homo sapiens, UniProt P03372, R394A); experiment: as above; details: MDA-MB-231 transfected with mutant ER, E2 10 nM, 24 hr
T15 construct: expressed in transfected cells; host or cells: MDA-MB-231
T15 sequence (P03372 whole entry R394A): as the sequence (P03372 whole entry K449A) above, with R394A, A449K counted along it
Text: as §2, §1

Wild-type ER = target: T16, Wild-type ER (Homo sapiens, UniProt P03372); experiment: as above; details: MDA-MB-231 transfected with wtER, E2 10 nM, 24 hr
T16 construct: expressed in transfected cells; host or cells: MDA-MB-231
Text: as §2, §1

Oc1cc(CN2COc3ccccc32)c(O)cc1CNC1CCCCC1 [A7, reference compound]
ER activity in LCC9 cells, compound combined with Tam [1]: no more inhibition of ER activity than A7 alone
IC50 (ER Lys449Ala): 2 µM
IC50 (ER Prol325Ala): 7 µM
IC50 (ER Leu327Ala): 12 µM
IC50 (ER Leu387Ala): 2.5 µM
IC50 (ER Ile386Ala+Leu387Ala): 2.5 µM
IC50 (ER Trp393Ala): 12 µM
IC50 (ER Glu353Ala): 11 µM
IC50 (ER Pro325Ala): 7 µM
IC50 (ER His356Ala): 11 µM
IC50 (ER Pro324Ala): 3 µM
IC50 (ER Ile386Ala): 2.5 µM
IC50 (ER Ile326Ala): 13 µM
IC50 (ER Glu323Ala): 13 µM
IC50 (ER Arg394Ala): 12 µM
IC50 (Wild-type ER): 2.5 µM
